# How the values were obtained:
# GIRK1/4 = molecular target: T1, GIRK1/4 (Homo sapiens, UniProt P48544+P48549); experiment: Thallium flux assay, HEK-293 cells expressing GIRK1/4; type: cell-based; settings: cell line GIRK1-4; average ± SEM
# T1 construct: expressed in transfected cells; host or cells: HEK-293
# T1 sequence (P48549 1-501): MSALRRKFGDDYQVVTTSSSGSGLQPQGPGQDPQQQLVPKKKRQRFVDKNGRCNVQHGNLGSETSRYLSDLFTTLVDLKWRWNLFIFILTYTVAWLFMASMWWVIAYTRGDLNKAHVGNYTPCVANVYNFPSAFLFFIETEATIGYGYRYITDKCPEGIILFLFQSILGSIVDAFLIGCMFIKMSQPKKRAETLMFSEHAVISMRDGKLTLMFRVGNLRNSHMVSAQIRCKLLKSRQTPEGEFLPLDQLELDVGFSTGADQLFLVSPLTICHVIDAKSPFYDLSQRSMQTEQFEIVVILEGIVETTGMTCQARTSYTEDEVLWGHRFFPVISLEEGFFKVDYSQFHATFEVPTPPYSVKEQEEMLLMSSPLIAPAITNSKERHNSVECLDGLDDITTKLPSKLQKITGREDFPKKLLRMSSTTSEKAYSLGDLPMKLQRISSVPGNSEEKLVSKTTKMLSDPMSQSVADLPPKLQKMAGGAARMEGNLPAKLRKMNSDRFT
# T1 sequence (P48544 1-419): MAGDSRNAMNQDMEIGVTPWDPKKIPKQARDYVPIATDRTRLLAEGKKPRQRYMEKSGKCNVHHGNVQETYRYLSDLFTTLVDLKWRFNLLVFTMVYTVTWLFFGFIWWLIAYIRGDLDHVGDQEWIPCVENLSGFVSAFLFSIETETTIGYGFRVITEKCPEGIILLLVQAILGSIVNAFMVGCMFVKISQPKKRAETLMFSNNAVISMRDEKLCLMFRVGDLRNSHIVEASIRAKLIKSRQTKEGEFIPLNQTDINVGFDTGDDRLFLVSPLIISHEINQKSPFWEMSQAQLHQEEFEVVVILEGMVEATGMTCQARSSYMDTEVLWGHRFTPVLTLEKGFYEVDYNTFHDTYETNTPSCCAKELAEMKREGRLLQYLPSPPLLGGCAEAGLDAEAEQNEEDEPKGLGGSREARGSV
# Source text: Cell Line Construction and Cell Culture. HEK-293 cells co-expressing human GIRK1/2 and rat mGlu8 were generated as previously described (Niswender et al., 2008). A HEK-293 cell line (ATCC, Manassas, Va.) expressing human GIRK1 and human GIRK2 was constructed by transfecting HEK-293 cells with GIRK1 and GIRK2 (Origene, Rockville, Md.) cloned into the pBudCE4.1 vector (Life Technologies, Carlsbad, Calif.) using FuGene 6 (Promega, Madison, Wis.) transfection reagent. Unless otherwise noted, other ion channel-expressing cells were prepared by transfecting HEK-293 cells with individual or combinations of subunits: GIRK1, pCMV6-A-BSD; GIRK2, pCMV6-A-puro; GIRK3, pCMV6-A-hygro; GIRK4, pCMV6-A-AC; Kv7.4, pIRESneo3. The Kir2.1 and hERG-expressing cell lines were made by transfecting T-REx-293 cells (Life Technologies, Carlsbad, Calif.) with Kir2.1 and Kv11.1, respectively, cloned into pcDNA5TO. Monoclonal cell lines were produced by limiting-dilution cloning of antibiotic-resistant cells and functional selection using the thallium flux assay described below. Unless otherwise noted, cells were maintained in Minimal Essential Medium, Alpha Medium (Mediatech, Manassas, Va.) supplemented with 10% fetal bovine serum (Sigma-Aldrich, Saint Louis, Mo.) and GlutaGro (Mediatech, Manassas, Va.), referred to henceforth as cell culture medium. […]
# GABAA (flunitrazepam) = experiment: Radioligand displacement (Ricerca); type: binding, rat; settings: 10 μM
# Histamine H1 = molecular target: T2, Histamine H1 (Homo sapiens, UniProt P35367); experiment: Radioligand displacement (Ricerca); type: binding
# T2 construct: Ricerca
# T2 sequence (P35367 whole entry): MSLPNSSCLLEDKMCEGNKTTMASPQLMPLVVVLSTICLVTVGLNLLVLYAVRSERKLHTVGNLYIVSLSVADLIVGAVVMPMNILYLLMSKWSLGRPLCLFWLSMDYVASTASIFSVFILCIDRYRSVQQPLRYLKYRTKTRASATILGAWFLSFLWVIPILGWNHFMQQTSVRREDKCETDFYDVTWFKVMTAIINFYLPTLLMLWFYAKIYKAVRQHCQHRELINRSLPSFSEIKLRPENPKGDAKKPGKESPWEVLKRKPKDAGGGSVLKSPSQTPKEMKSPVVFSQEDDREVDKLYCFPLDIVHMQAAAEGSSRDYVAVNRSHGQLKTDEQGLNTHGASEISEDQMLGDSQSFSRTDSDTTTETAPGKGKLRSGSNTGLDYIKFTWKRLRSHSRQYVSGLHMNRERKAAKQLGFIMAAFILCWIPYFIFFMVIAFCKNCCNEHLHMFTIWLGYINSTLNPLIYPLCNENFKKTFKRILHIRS
# Phorbol ester = experiment: Radioligand displacement (Ricerca); type: binding, mouse; settings: 10 μM
compound,measurement,setting,value
"Cc1cc(NC(=O)Nc2ccc(F)c(F)c2)n(-c2ccccc2)n1 [VU0456810, 1-(3,4-difluorophenyl)-3-(3-methyl-1-phenyl-1H-pyrazol-5-yl)urea]",EC50,GIRK1/4,887 ± 266 nM
same,EC50 Thallium Flux,GIRK1/4,able to activate
same,% Inhibition,GABAA (flunitrazepam),24%
same,inhibition at 10 µM,Histamine H1,-7%
same,% Inhibition,Phorbol ester,1%
